Test results reported in paper PMC7180622, “PET Imaging of the Adenosine A2A Receptor in the Rotenone-Based Mouse Model of Parkinson’s Disease with [^18F]FESCH Synthesized by a Simplified Two-Step One-Pot Radiolabeling Strategy” (Molecules, 2020).

Columns and labels:
[1] = target: T1, adenosine A1 receptor (hA1R) (Homo sapiens, UniProt P30542); experiment: radioligand displacement with [3H]DPCPX; assay type: binding
T1 construct: gene ADORA1; membrane homogenates of stably transfected CHO-K1 cells
T1 sequence (P30542 1-326): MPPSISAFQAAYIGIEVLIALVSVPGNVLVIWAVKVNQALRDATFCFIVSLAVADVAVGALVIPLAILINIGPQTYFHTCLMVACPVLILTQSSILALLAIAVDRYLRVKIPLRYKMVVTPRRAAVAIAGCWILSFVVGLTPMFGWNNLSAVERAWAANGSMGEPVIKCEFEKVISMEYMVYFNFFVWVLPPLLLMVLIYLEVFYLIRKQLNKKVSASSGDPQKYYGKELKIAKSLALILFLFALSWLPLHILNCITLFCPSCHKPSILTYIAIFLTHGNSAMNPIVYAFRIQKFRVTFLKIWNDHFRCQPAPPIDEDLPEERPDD

[2] = target: T2, adenosine A2A receptor (hA2AR) (Homo sapiens, UniProt P29274); experiment: radioligand displacement with [3H]ZM241385; assay type: binding
T2 construct: gene ADORA2A; membrane homogenates of stably transfected CHO-K1 cells
T2 sequence (P29274 whole entry): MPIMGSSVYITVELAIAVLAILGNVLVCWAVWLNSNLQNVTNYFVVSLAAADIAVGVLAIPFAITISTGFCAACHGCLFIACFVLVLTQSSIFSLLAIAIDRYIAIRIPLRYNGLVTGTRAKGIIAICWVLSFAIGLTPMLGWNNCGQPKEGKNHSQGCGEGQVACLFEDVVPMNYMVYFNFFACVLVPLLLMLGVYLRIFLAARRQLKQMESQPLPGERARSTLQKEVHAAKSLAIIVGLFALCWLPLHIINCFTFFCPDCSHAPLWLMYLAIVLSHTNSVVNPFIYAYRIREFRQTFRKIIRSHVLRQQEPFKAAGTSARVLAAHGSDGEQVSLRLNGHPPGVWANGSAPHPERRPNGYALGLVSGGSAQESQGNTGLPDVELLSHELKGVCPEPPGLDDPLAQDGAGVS

Nc1nc2c(cnn2CCCc2ccc(OCCF)cc2)c2nc(-c3ccco3)nn12 [FESCH]
Ki [1]: 203 ± 40 nM | Ki [2]: 0.6 ± 0.1 nM
